Data on 25 molecules can be found in patent US20230416256A1, “SMALL MOLECULE INHIBITORS OF NF-kB INDUCING KINASE” (Janssen Pharmaceutica NV, priority 2020, published 2023).

For test [1], the target named is recombinant human NF-kappaB-inducing kinase (NIK/MAP3K14) (Homo sapiens, UniProt Q99558). Kind of test: Inhibition of auto-phosphorylation of recombinant human NIK/MAP3K14 activity (AlphaScreen). In kind it is biochemical. The settings on record: GST-tagged NIK/MAP3K14 1 nM, 5 μM ATP, 2 h at 25° C.; average of values obtained. The protocol:
Inhibition of Auto-Phosphorylation of Recombinant Human NF-kappaB-Inducing Kinase (NIK/MAP3K14) Activity (AlphaScreen®)
NIK/MAP3K14 auto-phosphorylation activity was measured using the AlphaScreen® (αscreen) format (Perkin Elmer). All compounds tested were dissolved in dimethyl sulfoxide (DMSO) and further dilutions were made in assay buffer. The final DMSO concentration was 0.7% (v/v) in assays. The assay buffer was 50 mM Tris pH 7.5 containing 1 mM EGTA (ethylene glycol tetraacetic acid), 1 mM DTT (dithiothreitol), 0.1 mM Na3VO4, 5 mM MgCl2, and 0.01% Tween® 20. The assays were carried out in 384 well Proxiplates (Perkin Elmer). The incubations consisted of the compound, 5 μM Adenosine-5′-triphosphate (ATP), and 1 nM NIK/MAP3K14. Incubations were initiated by the addition of GST-tagged NIK/MAP3K14 enzyme, carried out for 2 h at 25° C. and terminated by addition of stop buffer containing anti-phospho-IKK Ser176/180 antibody. Protein A Acceptor and Glutathione-Donor beads were added before reading using an EnVision Multilabel Plate Reader (Perkin Elmer). The signal obtained in the wells was normalized using high (full enzyme activity, 0.7% DMSO) and low controls (no enzyme activity, 0.7% DMSO, no ATP). IC50's were determined by fitting a sigmoidal curve to % inhibition of control versus Log10 compound concentration.

The test system of test [2] is p-IKKα levels in L363 (NIK translocated multiple myeloma) cells. Kind of test: Effect of compounds on p-IKKα levels in L363 cells (AlphaLISA SureFire Ultra). The test is classed as cell-based, human. To be noted: Homo sapiens, 10 μM MG132, 6 h, average of values obtained, read-out: Assay 2 IC50. The procedure: Effect of Compounds on p-IKKα Levels in L363 (NIK Translocated Multiple Myeloma) Cells
All compounds tested were dissolved and serially diluted in DMSO, 1:3 dilution for 11 points in an Echo compatible plate. 100% DMSO was added to columns 12 and 24 of the plate to serve as high and low signal controls. This compound plate was used to spot 20 nL of compound or DMSO into a Greiner 384 well TC plate (781080). The final DMSO concentration was 0.3% (v/v) in cell assays. Human L363 cells (ATCC) were cultured in RPMI1640 medium supplemented with GlutaMax, non-essential amino acids, sodium pyruvate and 10% fetal bovine serum. Cells were routinely maintained at densities of […]-2×10^6 cells per mL at 37° C. in a humidified 5% CO2 atmosphere incubator. Cells were passaged twice a week splitting back to obtain the low density. The day before the assay, cells were washed twice in HBSS (Hank's Balanced Salt Solution), resuspended in Dulbecco's Modified Eagle Medium (DMEM)+0.5% IgG and protease free BSA (Jackson Immuno Research Laboratories), +/−250 ng/ml recombinant human B-cell activating factor (BAFF/BLyS/TNFSF13B) and incubated overnight at 37° C. in a humidified 5% CO2 atmosphere (bulk stimulation with or without BAFF). The next day, the cell concentration was adjusted to 1×10^7 cells/ml in DMEM+/−250 ng/ml BAFF+/10 μM MG132 and plated at […] into compound or DMSO spotted 384 well TC plates. Seeded cells were incubated at 37° C. in a humidified 5% CO2 atmosphere for 6 h. After 6 h, the plates were removed from the incubator and cell lysis was achieved by the addition of 2.5 μl 5×lysis buffer containing protease and phosphatase inhibitors, followed by shaking on a plate shaker at room temperature for 15 min. At the end of this incubation, lysed cells were sequentially treated and incubated with acceptor and donor bead mixes according to the manufacturer's protocol for a 1 plate/2-incubation suspension cell assay (AlphaLISA SureFire Ultra p-IKKa (Ser 176/180) Assay Kit (Perkin Elmer). Plates were read using an EnVision Multilabel Plate Reader (Perkin Elmer). Within an experiment, a concentration response curve for each compound was run in duplicate. The signal obtained in the test wells was normalized using high signal (BAFF stimulated cells, DMSO, MG132) and low signal (unstimulated cells, DMSO) controls. To determine the IC50, a sigmoidal curve was fitted to the plot of % inhibition versus Log10 compound concentration.
On the technique in general: Bead proximity is the source of the signal in Alpha formats.

Where [3] appears, read: L-363, 6 h, 250 ng/ml BAFF stimulated.
Setting [4] is: L-363, 250 ng/ml BAFF stimulated.

The structures appear in SMILES notation. Read-outs that look alike come from different tables or passages of the source.

The term IC50 denotes the concentration needed to halve the response being measured.

recombinant human NF-kappaB-inducing kinase (NIK/MAP3K14), sequence (Q99558 whole entry): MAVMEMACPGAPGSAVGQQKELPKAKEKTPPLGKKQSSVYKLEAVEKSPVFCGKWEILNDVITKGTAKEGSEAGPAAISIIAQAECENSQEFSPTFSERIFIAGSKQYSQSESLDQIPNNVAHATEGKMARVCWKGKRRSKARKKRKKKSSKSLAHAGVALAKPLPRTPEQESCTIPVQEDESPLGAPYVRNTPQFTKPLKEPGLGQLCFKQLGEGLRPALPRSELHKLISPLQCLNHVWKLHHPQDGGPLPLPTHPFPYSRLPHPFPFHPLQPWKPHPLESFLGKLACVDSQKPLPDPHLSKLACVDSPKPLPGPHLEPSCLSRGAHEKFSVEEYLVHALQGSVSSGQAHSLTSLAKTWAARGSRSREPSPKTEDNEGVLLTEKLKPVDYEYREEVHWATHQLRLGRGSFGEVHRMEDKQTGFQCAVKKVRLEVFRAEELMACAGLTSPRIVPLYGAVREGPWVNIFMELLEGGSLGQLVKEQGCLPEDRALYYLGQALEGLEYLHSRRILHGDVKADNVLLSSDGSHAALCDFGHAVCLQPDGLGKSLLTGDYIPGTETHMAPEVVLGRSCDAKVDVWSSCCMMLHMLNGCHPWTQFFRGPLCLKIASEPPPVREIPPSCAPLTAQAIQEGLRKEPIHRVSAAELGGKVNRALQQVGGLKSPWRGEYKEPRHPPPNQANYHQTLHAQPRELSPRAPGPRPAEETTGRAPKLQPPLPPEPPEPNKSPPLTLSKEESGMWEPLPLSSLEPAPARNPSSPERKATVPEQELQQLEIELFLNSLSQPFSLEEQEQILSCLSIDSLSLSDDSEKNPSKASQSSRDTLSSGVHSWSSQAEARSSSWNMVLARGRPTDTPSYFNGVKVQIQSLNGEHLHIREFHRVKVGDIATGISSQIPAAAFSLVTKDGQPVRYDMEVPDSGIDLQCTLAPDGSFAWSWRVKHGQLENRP

`O[C@@]1(c2cccc(-c3csc(-c4c[nH]c5ncccc45)n3)c2)C=Cc2cccnc21` (single isomer, unassigned) [Example 33]: the values for the IC50 in test [1] and in test [2] (setting [3]) were no more than 0.1 µM and greater than 0.5 µM, respectively.

Consider `CN1CC[C@](O)(c2cccc(-c3cnc(-c4c[nH]c5ncccc45)s3)c2)C1=O` (single isomer, unassigned) [Example 4], for which the IC50 in test [1] and in test [2] (setting [4]) was greater than 0.5 µM each time.

In the case of `O[C@]1(c2cccc(-c3nc(-c4c[nH]c5ncccc45)cs3)c2)CCc2cccnc21` (single isomer, unassigned) [Example 23], the IC50 in test [1] was 0.1 to 0.5 µM; in test [2] (setting [3]), greater than 0.5 µM.

For the molecule `CN1CCC[C@](O)(c2cccc(-c3csc(-c4c[nH]c5nccnc45)n3)c2)C1=O` [Example 55, (S)-3-(3-(2-(5H-Pyrrolo[2,3-b]pyrazin-7-yl)thiazol-4-yl)phenyl)-3-hydroxy-1-methylpiperidin-2-one], the IC50 in test [1] and in test [2] (setting [4]) was greater than 0.5 µM throughout.

As to `O=C1Nc2cccnc2[C@]1(O)c1cccc(-c2csc(-c3c[nH]c4ncccc34)n2)c1` (single isomer, unassigned) [Example 89], the IC50 in test [1] and in test [2] (setting [4]) was greater than 0.5 µM in each case.

Take `Cc1ccc2c(-c3nc(-c4cccc([C@]5(O)CCN(C)C5=O)c4)cs3)c[nH]c2n1` [Example 73, (R)-3-Hydroxy-1-methyl-3-(3-(2-(6-methyl-1H-pyrrolo[2,3-b]pyridin-3-yl)thiazol-4-yl)phenyl)pyrrolidin-2-one]: the IC50 in test [1] is no more than 0.1 µM; in test [2] (setting [4]) it was greater than 0.5 µM.

For `O[C@]1(c2cccc(-c3nc(-c4c[nH]c5ncccc45)cs3)c2)CCc2scnc21` [Example 58, (S)-4-(3-(4-(1H-Pyrrolo[2,3-b]pyridin-3-yl)thiazol-2-yl)phenyl)-5,6-dihydro-4H-cyclopenta[d]thiazol-4-ol], the IC50 was 0.1 to 0.5 µM in test [1] and greater than 0.5 µM in test [2] (setting [3]).

Consider `O[C@]1(c2cccc(-c3nc(-c4c[nH]c5ncccc45)cs3)c2)CCn2ccnc21` [Example 84, (S)-7-(3-(4-(1H-Pyrrolo[2,3-b]pyridin-3-yl)thiazol-2-yl)phenyl)-6,7-dihydro-5H-pyrrolo[1,2-a]imidazol-7-ol], for which the IC50 is 0.1 to 0.5 µM in test [1] and greater than 0.5 µM in test [2] (setting [3]).

With `O[C@@]1(c2cccc(-c3csc(-c4c[nH]c5ncccc45)n3)c2)CCc2cccnc21` (single isomer, unassigned) [Example 2], the IC50 in test [1] is no more than 0.1 µM; in test [2] (setting [3]), 0.1 to 0.5 µM.

Consider `CN1CC[C@@](O)(c2cccc(-c3nc(-c4cccc5[nH]ncc45)cs3)c2)C1=O` [Example 131, (R)-3-(3-(4-(1H-Indazol-4-yl)thiazol-2-yl)phenyl)-3-hydroxy-1-methylpyrrolidin-2-one], for which the IC50 in test [1] and in test [2] (setting [4]) was greater than 0.5 µM in each case.

Regarding `O[C@@]1(c2cccc(-c3csc(-c4c[nH]c5nccnc45)n3)c2)CCn2ccnc21` [Example 41, (R)-7-(3-(2-(5H-Pyrrolo[2,3-b]pyrazin-7-yl)thiazol-4-yl)phenyl)-6,7-dihydro-5H-pyrrolo[1,2-a]imidazol-7-ol], the IC50 in test [1] and in test [2] (setting [3]) was no more than 0.1 µM throughout.

`O=C1Nc2cccnc2[C@@]1(O)c1cccc(-c2csc(-c3c[nH]c4ncccc34)n2)c1` (single isomer, unassigned) [Example 90]: the IC50 in test [1] and in test [2] (setting [4]) was greater than 0.5 µM each time.

With `CN1CC[C@@](O)(c2cccc(-c3csc(-n4ccc5ncccc54)n3)c2)C1=O` (single isomer, unassigned) [Example 111], the IC50 in test [1] was 0.1 to 0.5 µM; in test [2] (setting [4]), greater than 0.5 µM.

Consider `C[C@](O)(c1cccc(-c2csc(-c3c[nH]c4ncccc34)n2)c1)c1nccs1` (single isomer, unassigned) [Example 64], for which the IC50 in test [1] and in test [2] (setting [3]) was greater than 0.5 µM each time.

Regarding `CN1CC[C@@](O)(c2cccc(-c3csc(-c4c[nH]c5nccnc45)n3)c2)C1=O` (single isomer, unassigned) [Example 40], the results for the 50% inhibitory concentration (IC50) in test [1] and in test [2] (setting [4]) were no more than 0.1 µM and 0.1 to 0.5 µM, respectively.

With `CN1CC[C@@](O)(c2cccc(-c3ncc(-c4c[nH]c5ncccc45)n3C)c2)C1=O` [Example 125, (R)-3-Hydroxy-1-methyl-3-(3-(1-methyl-5-(1H-pyrrolo[2,3-b]pyridin-3-yl)-1H-imidazol-2-yl)phenyl)pyrrolidin-2-one], the IC50 in test [1] is 0.1 to 0.5 µM; in test [2] (setting [4]) it was greater than 0.5 µM.

For the molecule `COc1cnc2[nH]cc(-c3nc(-c4cccc([C@]5(O)CCN(C)C5=O)c4)cs3)c2c1` [Example 49, (R)-3-Hydroxy-3-(3-(2-(5-methoxy-1H-pyrrolo[2,3-b]pyridin-3-yl)thiazol-4-yl)phenyl)-1-methylpyrrolidin-2-one], the IC50 is no more than 0.1 µM in test [1] and 0.1 to 0.5 µM in test [2] (setting [4]).

For `CC1(C)Cc2cccnc2[C@]1(O)c1cccc(-c2csc(-c3c[nH]c4ncccc34)n2)c1` (single isomer, unassigned) [Example 36], the 50% inhibitory concentration (IC50) was no more than 0.1 µM in test [1] and greater than 0.5 µM in test [2] (setting [3]).

For `O[C@]1(c2cccc(-c3nc(-c4c[nH]c5nccnc45)cs3)c2)CCn2ccnc21` [Example 12, (S)-7-(3-(4-(5H-Pyrrolo[2,3-b]pyrazin-7-yl)thiazol-2-yl)phenyl)-6,7-dihydro-5H-pyrrolo[1,2-a]imidazol-7-ol], the IC50 in test [1] was 0.1 to 0.5 µM; in test [2] (setting [3]) it was greater than 0.5 µM.

With `C[C@@](O)(c1cccc(-c2csc(-c3c[nH]c4ncccc34)n2)c1)c1ccccn1` (single isomer, unassigned) [Example 60], the IC50 in test [1] and in test [2] (setting [3]) was greater than 0.5 µM in each case.

In the case of `O=C1N(CC(F)(F)F)CC[C@@]1(O)c1cccc(-c2csc(-c3c[nH]c4nccnc34)n2)c1` [Example 44, (R)-3-(3-(2-(5H-Pyrrolo[2,3-b]pyrazin-7-yl)thiazol-4-yl)phenyl)-3-hydroxy-1-(2,2,2-trifluoroethyl)pyrrolidin-2-one], the IC50 in test [1] and in test [2] (setting [4]) was greater than 0.5 µM in each case.

`O[C@@]1(c2cccc(-c3nc(-c4c[nH]c5ncccc45)cs3)c2)CCn2ccnc21` [Example 15, (R)-7-(3-(4-(1H-Pyrrolo[2,3-b]pyridin-3-yl)thiazol-2-yl)phenyl)-6,7-dihydro-5H-pyrrolo[1,2-a]imidazol-7-ol]: the IC50 in test [1] was no more than 0.1 µM; in test [2] (setting [3]), 0.1 to 0.5 µM.

Consider `CN1C(=O)[C@](O)(c2cccc(-c3csc(-c4c[nH]c5ncccc45)n3)c2)c2ncccc21` [Example 92, (S)-3-(3-(2-(1H-Pyrrolo[2,3-b]pyridin-3-yl)thiazol-4-yl)phenyl)-3-hydroxy-1-methyl-1,3-dihydro-2H-pyrrolo[3,2-b]pyridin-2-one], for which the values for the IC50 in test [1] and in test [2] (setting [4]) were no more than 0.1 µM and greater than 0.5 µM, respectively.

On to `O[C@@H]1C[C@](O)(c2cccc(-c3csc(-c4c[nH]c5ncccc45)n3)c2)c2ncccc21` (single isomer, unassigned) [Example 104], for which the IC50 in test [1] and in test [2] (setting [3]) was greater than 0.5 µM in each case.

On to `O[C@@]1(c2cccc(-c3csc(-c4c[nH]c5ncc(Cl)c(F)c45)n3)c2)CCn2ccnc21` [Example 97, (R)-7-(3-(2-(5-Chloro-4-fluoro-1H-pyrrolo[2,3-b]pyridin-3-yl)thiazol-4-yl)phenyl)-6,7-dihydro-5H-pyrrolo[1,2-a]imidazol-7-ol], for which the values for the IC50 in test [1] and in test [2] (setting [3]) were no more than 0.1 µM and 0.1 to 0.5 µM, respectively.
